Laboratory results reported in patent US7312237B2, “Combination of epothilone analogs and chemotherapeutic agents for the treatment of prolilferative diseases” (Bristol-Myers Squibb Co., priority 2001, dated 2007).
pIC50: −log10 of the molar value. Where “and” joins values, the source holds several entries; their conditions need not be identical. Equal entries are not always repeated. Entries after “also recorded” stand apart in the source; their conditions may differ.

Tests used:
[1] = system: HCT116 human colon carcinoma; experiment: In vivo antitumor testing, HCT116 xenograft; parameters: species or system nude mice
Method: (§1) All tumor implants for efficacy testing were subcutaneous (sc).
(§2) The MTD was frequently equivalent to OD. When death occurs, the day of death was recorded.
(§3) And, Log cell kill=T−C÷(3.32×TVDT)

[2] = In vivo antitumor testing, HCT116 xenograft; parameters: species or system nude mice; settings: nude, mouse, in vivo, read-out: OD (optimal dose or MTD)
Method: as §1, §2, §3

[3] = system: A2780Tax human ovarian carcinoma; settings: Expt. 12, IV q2dx5, OD 6.3 mg/kg
Description: (§4) The following human tumors were used: A2780 ovarian, A2780Tax ovarian (established from cells obtained from Dr. Antonio Fojo, Medicine Branch, NCI, Bethesda, Md.), HCT116/VM46 colon, Pat-7 ovarian (established from a tumor biopsy provided by Dr. Thomas Hamilton, Fox Chase Cancer Center, Philadelphia, Pa.) from a patient who had developed resistance to TAXOL®). The murine fibrosarcoma M5076 was also employed.
The following tumors were passaged in the indicated host strain of mouse: murine M5076 fibrosarcoma (M5076) in C57Bl/6 mice; human A2780 and Pat-7 ovarian carcinomas, HCT116, HCT116/VM46 and LS174T colon carcinoma, Pat-21 breast carcinoma in nude mice. Tumor passage occurred biweekly for murine tumors and approximately every two to eight weeks for the various human tumor lines. With regard to efficacy testing, M5076 tumors were implanted in (C57Bl/6×DBA/2)F1 hybrid mice, and human tumors were implanted in nude mice. All tumor implants for efficacy testing were subcutaneous (sc). […]
Antitumor activity was evaluated at the maximum tolerated dose (MTD) which is defined as the dose level immediately […] which excessive toxicity (i.e. more than one death) occurred. […] When death occurs, the day of death was recorded. […]
To estimate tumor cell kill, the tumor volume doubling time was first calculated with the formula: […]

in vivo = settings: nude, mouse, in vivo, iv, Compound 1 IV
Description: as §4
(§5) The following tumors were passaged in the indicated host strain of mouse: murine M5076 fibrosarcoma (M5076) in C57Bl/6 mice; human A2780 and Pat-7 ovarian carcinomas, HCT116, HCT116/VM46 and LS174T colon carcinoma, Pat-21 breast carcinoma in nude mice. Tumor passage occurred biweekly for murine tumors and approximately every two to eight weeks for the various human tumor lines. With regard to efficacy testing, M5076 tumors were implanted in (C57Bl/6×DBA/2)F1 hybrid mice, and human tumors were implanted in nude mice. All tumor implants for efficacy testing were subcutaneous (sc).
(§6) The required number of animals needed to detect a meaningful response were pooled at the start of the experiment and each was given a subcutaneous implant of a tumor fragment (·50 mg) with a 13-gauge trocar. For treatment of early-stage tumors, the animals were again pooled before distribution to the various treatment and control groups. For treatment of animals with advanced-stage disease, tumors were allowed to grow to the predetermined size window (tumors outside the range were excluded) and animals were evenly distributed to various treatment and control groups. Treatment of each animal was based on individual body weight. Treated animals were checked daily for treatment related toxicity/mortality. Each group of animals was weighed before the initiation of treatment (Wt1) and then again following the last treatment dose (Wt2). The difference in body weight (Wt2−Wt1) provides a measure of treatment-related toxicity.
(§7) Tumor weights (mg) were estimated from the formula: Tumor weight=(length×width^2)÷2
(§8) Antitumor activity was evaluated at the maximum tolerated dose (MTD) which is defined as the dose level immediately […] which excessive toxicity (i.e. more than one death) occurred. […] When death occurs, the day of death was recorded.
(§9) Tumor response end-point was expressed in terms of tumor growth delay (T-C value), defined as the difference in time (days) required for the treated tumors (T) to reach a predetermined target size compared to those of the control group (C).
(§10) To estimate tumor cell kill, the tumor volume doubling time was first calculated with the formula:
(§11) TVDT=Median time (days) for control tumors to reach target size−Median time (days) for control tumors to reach half the target size
(§12) HCT116/VM46 is an MDR-resistant colon carcinoma developed from the sensitive HCT116 parent line.

[4] = system: HCT116/VM46 human colon carcinoma; experiment: in vivo
Description: as §4, §5, §6, §7, §8, §9, §10, §11, §12

[5] = In vivo antitumor testing, Pat-7 in nude mice; settings: nude, mouse, in vivo
Method: as §1, §2, §3
(§13) This tumor model was established from a tumor biopsy of an ovarian cancer patient (Pat-7), who was initially responsive to TAXOL® treatment but ultimately developed resistance to it following nine courses of monotherapy with TAXOL®. Prior to treatment with TAXOL®, Pat-7 also received numerous other chemotherapeutic agents including carboplatin, cytoxan, VP-16, ifosfamide and altretamine. Tumor biopsy was taken following development of TAXOL® resistance.

[6] = system: Pat-7 human ovarian carcinoma; experiment: In vivo antitumor testing, Pat-7 in nude mice
Method: as §1, §2, §3, §13

[7] = Stability as a function of pH; assay type: physicochemical; settings: neutral pH versus low pH
[8] = In vivo antitumor testing, LS174T xenograft; parameters: species or system nude mice; settings: nude, mouse, in vivo, iv; read-out: OD (optimal dose or MTD)
Method: as §1, §2, §3

[9] = system: LS174T human colon carcinoma; experiment: In vivo antitumor testing, LS174T xenograft; parameters: species or system nude mice; settings: Expt. R578, IV q4dx3, OD 16 mg/kg
Method: as §1, §2, §3

[10] = system: A2780 human ovarian carcinoma; experiment: In vivo antitumor testing, A2780 in nude mice
Method: as §1, §2, §3

[11] = In vivo antitumor testing, A2780 in nude mice; settings: nude, mouse, in vivo, iv, Compound 1 IV, read-out: OD (optimal dose or MTD)
Method: as §1, §2, §3

MIP = experiment: In vitro cytotoxicity (MTS assay), MIP; assay type: cell-based; settings: 72 h
Method: The in vitro cytotoxicity was assessed in tumor cells by a tetrazolium-based colorimetric assay which takes advantage of the metabolic conversion of MTS (3-(4,5-dimethylthiazol-2-yl)-5-(3-carboxymethoxyphenyl)-2-(4-sulphenyl)-2H-tetrazolium, inner salt) to a reduced form that absorbs light at 492 nm. Cells were seeded 24 hr prior to drug addition. Following a 72 hour incubation at 37° C. with serially diluted compound, MTS, in combination with the electron coupling agent phenazine methosulfate, was added to the cells. The incubation was continued for 3 hours, then the absorbancy of the medium at 492 nm was measured with a spectrophotometer to obtain the number of surviving cells relative to control populations. The results are expressed as median cytotoxic concentrations (IC50 values).

[12] = Expt. 52, IV q2dx5, OD 6.3 mg/kg
[13] = Expt. 52, IV q4dx3, OD 10 mg/kg
[14] = Expt. 52, IV q8dx2, OD 24 mg/kg
[15] = Expt. 52, PO q2dx5, OD 90 mg/kg
[16] = Expt. 89, IV q2dx5, OD 6.3 mg/kg
[17] = Expt. 115, IV q2dx5, OD 6.3 mg/kg
[18] = Expt. 115, IV q4dx3, OD 16 mg/kg

SMILES: C/C(=C\c1csc(C)n1)[C@@H]1C[C@@H]2O[C@]2(C)CCC[C@H](C)[C@H](O)[C@@H](C)C(=O)C(C)(C)[C@@H](O)CC(=O)N1 (relative stereo) [Compound 1, [1S-[1R*,3R*(E),7R*,10S*,11R*,12R*,16S*]]-7,11-dihydroxy-8,8,10,12,16-pentamethyl-3-[1-methyl-2-(2-methyl-4-thiazolyl)ethenyl]-4-aza-17-oxabicyclo[14.1.0] heptadecane-5,9-dione]
- LCK (gross log cell kill) [1, 12]: > 6.3
- cures/total [1, 12]: 4 of 8 and 4/8
- LCK (gross log cell kill) [1, 13]: > 6.3
- cures/total [1, 13]: 5 of 8 and 5/8
- LCK (gross log cell kill) [1, 14]: > 6.3
- cures/total [1, 14]: 8 of 8 and 8/8
- LCK (gross log cell kill) [1, 15]: >6.3
- cures/total [1, 15]: seven of eight; also recorded: (7/8)
- MTD ([2]; iv, Compound 1 IV, q2dx5): 6.3 mg/kg
- MTD ([2]; iv, Compound 1 IV, q4dx3): 10 mg/kg
- MTD ([2]; iv, Compound 1 IV, q8dx2): 24 mg/kg
- MTD ([2]; po, Compound 1 PO, q2dx5): 90 mg/kg
- LCK (gross log cell kill) [3]: 2.5
- MTD (in vivo; OD (optimal dose or MTD), q2dx5): 4.8 mg/kg
- MTD (in vivo; OD (optimal dose or MTD; maximum tolerated regimen), q4dx3): 15 mg/kg
- OD (optimal dose or MTD) ([4]; Compound 1 IV, q2dx5): 6.3 mg/kg
- OD (optimal dose or MTD; maximum tolerated regimen) ([4]; Compound 1 IV, q4dx3): 16 mg/kg
- LCK (gross log cell kill) ([4]; Expt. 32, IV q2dx5, OD 4.8 mg/kg): 3.1
- LCK (gross log cell kill) ([4]; Expt. 33, IV q2dx5, OD 4.8 mg/kg): 1.3
- LCK (gross log cell kill) ([4]; Expt. 35, IV q2dx5, OD 6.3 mg/kg): 1.8
- LCK (gross log cell kill) ([4]; Expt. 35, IV q4dx3, OD 16 mg/kg): 2.0
- LCK of tumor response ([4]; FIG. 7, Compound 1 alone, 15 mg/kg iv, q4dx3): 1.6 LCK
- tumor cure ([4]; FIG. 7, single agent treatment at maximum tolerated regimen): did not induce tumor cure
- MTD ([5]; iv, Compound 1 IV, q2dx5, read-out: OD (optimal dose or maximum tolerated dose, MTD)): 4.8 mg/kg
- MTD ([5]; iv, Compound 1 IV, q4dx3, read-out: OD (optimal dose or MTD)): 15 mg/kg
- MTD ([5]; po, Compound 1 PO, q2dx5, read-out: OD (optimal dose or MTD)): 60 mg/kg
- OD (optimal dose or maximum tolerated dose, MTD) ([6]; Compound 1 IV, q2dx5): 6.3 mg/kg
- OD (optimal dose or MTD) ([6]; Compound 1 PO, q2dx5): 80 mg/kg
- LCK (gross log cell kill) ([6]; Expt. 8, IV q2dx5, OD 6.3 mg/kg): 4.5
- LCK (gross log cell kill) ([6]; Expt. 8, PO q2dx5, OD 60 mg/kg): 3.1
- LCK (gross log cell kill) ([6]; Expt. 9, PO q2dx5, OD 80 mg/kg): 2.5
- LCK (gross log cell kill) ([6]; Expt. 12, IV q2dx5, OD 6.3 mg/kg): 2.1
- LCK (gross log cell kill) ([6]; Expt. 12, IV q4dx3, OD 15 mg/kg): 1.7
- LCK (gross log cell kill) ([6]; Expt. R403, IV q2dx5, OD 4.8 mg/kg): 2.1
- stability versus pH [7]: significantly more stable at neutral pH than at low pH
- MTD [8]: 16 mg/kg
- LCK (gross log cell kill) [9]: 2.3
- OD (optimal dose or MTD) ([10]; Compound 1 IV, q2dx5): 4.8 mg/kg
- LCK (gross log cell kill) [10, 16]: > 4.8
- cures/total [10, 16]: 3/7
- LCK (gross log cell kill) ([10]; Expt. 92, IV q2dx5, OD 6.3 mg/kg): 2
- LCK (gross log cell kill) ([10]; Expt. 111, IV q2dx5, OD 4.8 mg/kg): 3.1
- LCK (gross log cell kill) [10, 17]: 2.4
- cures/total [10, 17]: 0/8
- LCK (gross log cell kill) [10, 18]: >5.3
- cures/total [10, 18]: 3/7
- MTD ([11]; q2dx5): 6.3 mg/kg
- MTD ([11]; q4dx3): 16 mg/kg
- pIC50 (MIP): 7.61
